Among the data in article PMC10722513 are ring closure, isolated yield values, retold here.

A short description of this series: Au(I)-catalysed intramolecular Trp C2-H alkynylation: peptide-EBX (4-ethynylbenzoyl bis-CF3-benziodoxole on Lys side chain or N-terminus) + AuCl·Me2S, open flask. To be noted: HFIP, 5.0 mM, 25.0 °C, 0.17 h.

For the compound `CC(=O)N[C@H](C(=O)N[C@@H](CO)C(=O)N[C@@H](Cc1ccccc1)C(=O)N[C@H]1CCCCNC(=O)c2ccc(cc2)C#Cc2[nH]c3ccccc3c2C[C@@H](C(=O)N[C@@H](C)C(=O)N[C@@H](CC(C)C)C(=O)N[C@@H](CC(C)C)C(=O)N[C@@H](Cc2c[nH]c3ccccc23)C(N)=O)NC(=O)[C@H](Cc2ccc(O)cc2)NC(=O)[C@H](CCC(=O)O)NC1=O)[C@@H](C)O` [Ac-T-S-F-K(EBX)-E-Y-W-A-L-L-W-NH2], the ring closure, isolated yield (from CC(=O)N[C@H](C(=O)N[C@@H](CO)C(=O)N[C@@H](Cc1ccccc1)C(=O)N[C@@H](CCCCNC(=O)c1ccc(C#CI2OC(C(F)(F)F)(C(F)(F)F)c3ccccc32)cc1)C(=O)N[C@@H](CCC(=O)O)C(=O)N[C@@H](Cc1ccc(O)cc1)C(=O)N[C@@H](Cc1c[nH]c2ccccc12)C(=O)N[C@@H](C)C(=O)N[C@@H](CC(C)C)C(=O)N[C@@H](CC(C)C)C(=O)N[C@@H](Cc1c[nH]c2ccccc12)C(N)=O)[C@@H](C)O, 25-membered ring) is 45%. Turning to `C[C@@H]1NC(=O)[C@H](CC(=O)O)NC(=O)c2ccc(cc2)C#Cc2[nH]c3ccccc3c2C[C@@H](C(N)=O)NC(=O)[C@H](CCC(=O)O)NC(=O)CNC(=O)[C@H]([C@@H](C)O)NC(=O)[C@H](CCC(=O)O)NC1=O` [EBX-D-A-E-T-G-E-W-NH2], the ring closure, isolated yield (from C[C@H](NC(=O)[C@H](CC(=O)O)NC(=O)c1ccc(C#CI2OC(C(F)(F)F)(C(F)(F)F)c3ccccc32)cc1)C(=O)N[C@@H](CCC(=O)O)C(=O)N[C@H](C(=O)NCC(=O)N[C@@H](CCC(=O)O)C(=O)N[C@@H](Cc1c[nH]c2ccccc12)C(N)=O)[C@@H](C)O, 30-membered ring) was determined as 49%. Take `N=C(N)NCCC[C@@H]1NC(=O)CNC(=O)c2ccc(cc2)C#Cc2[nH]c3ccccc3c2C[C@@H](C(N)=O)NC(=O)[C@H](Cc2ccccc2)NC(=O)[C@H](CC(=O)O)NC(=O)CNC1=O` [EBX-G-R-G-D-F-W-NH2]: the ring closure, isolated yield (from N=C(N)NCCC[C@H](NC(=O)CNC(=O)c1ccc(C#CI2OC(C(F)(F)F)(C(F)(F)F)c3ccccc32)cc1)C(=O)NCC(=O)N[C@@H](CC(=O)O)C(=O)N[C@@H](Cc1ccccc1)C(=O)N[C@@H](Cc1c[nH]c2ccccc12)C(N)=O, 27-membered ring) came out at 63%. On to `CC(=O)N[C@H]1CCCCNC(=O)c2ccc(cc2)C#Cc2[nH]c3ccccc3c2C[C@@H](C(=O)O)NC(=O)[C@H](Cc2ccccc2)NC(=O)[C@H](C)NC(=O)[C@H](CCC(=O)O)NC1=O` [Ac-K(EBX)-E-A-F-W-OH], for which, for the setting “from CC(=O)N[C@@H](CCCCNC(=O)c1ccc(C#CI2OC(C(F)(F)F)(C(F)(F)F)c3ccccc32)cc1)C(=O)N[C@@H](CCC(=O)O)C(=O)N[C@@H](C)C(=O)N[C@@H](Cc1ccccc1)C(=O)N[C@@H](Cc1c[nH]c2ccccc12)C(=O)O, 28-membered ring”, the ring closure, isolated yield was found to be 37%. `CC[C@H](C)[C@@H]1NC(=O)[C@@H]2CCCN2C(=O)[C@H]([C@@H](C)CC)NC(=O)[C@@H]2CCCN2C(=O)[C@H](Cc2ccccc2)NC(=O)[C@H](C)NC(=O)c2ccc(cc2)C#Cc2[nH]c3ccccc3c2C[C@@H](C(N)=O)NC1=O` [EBX-A-F-P-I-P-I-W-NH2]: the ring closure, isolated yield (from CC[C@H](C)[C@H](NC(=O)[C@@H]1CCCN1C(=O)[C@@H](NC(=O)[C@@H]1CCCN1C(=O)[C@H](Cc1ccccc1)NC(=O)[C@H](C)NC(=O)c1ccc(C#CI2OC(C(F)(F)F)(C(F)(F)F)c3ccccc32)cc1)[C@@H](C)CC)C(=O)N[C@@H](Cc1c[nH]c2ccccc12)C(N)=O, 30-membered ring) was determined as 53%. Regarding `CC(=O)N[C@H]1CCCCNC(=O)c2ccc(cc2)C#Cc2[nH]c3ccccc3c2C[C@@H](C(=O)O)NC(=O)[C@H](CC(C)C)NC1=O` [Ac-K(EBX)-L-W-OH], the ring closure, isolated yield (from CC(=O)N[C@@H](CCCCNC(=O)c1ccc(C#CI2OC(C(F)(F)F)(C(F)(F)F)c3ccccc32)cc1)C(=O)N[C@@H](CC(C)C)C(=O)N[C@@H](Cc1c[nH]c2ccccc12)C(=O)O, 22-membered ring) worked out at 40%. As for `N=C(N)NCCC[C@@H]1NC(=O)[C@H](CCCNC(=N)N)NC(=O)[C@H](CCCNC(=N)N)NC(=O)[C@H](CCCNC(=N)N)NC(=O)[C@H](Cc2ccc3ccccc3c2)NC(=O)[C@H](Cc2ccccc2)NC(=O)c2ccc(cc2)C#Cc2[nH]c3ccccc3c2C[C@@H](C(N)=O)NC1=O` [EBX-F-Nal(2)-R-R-R-R-W-NH2], the ring closure, isolated yield (from N=C(N)NCCC[C@H](NC(=O)[C@H](CCCNC(=N)N)NC(=O)[C@H](CCCNC(=N)N)NC(=O)[C@H](CCCNC(=N)N)NC(=O)[C@H](Cc1ccc2ccccc2c1)NC(=O)[C@H](Cc1ccccc1)NC(=O)c1ccc(C#CI2OC(C(F)(F)F)(C(F)(F)F)c3ccccc32)cc1)C(=O)N[C@@H](Cc1c[nH]c2ccccc12)C(N)=O, 30-membered ring) worked out at 57%. Regarding `CC(=O)N[C@H]1CCCCNC(=O)c2ccc(cc2)C#Cc2[nH]c3ccccc3c2C[C@@H](C(=O)O)NC(=O)[C@H](Cc2ccccc2)NC(=O)[C@H](C)NC(=O)[C@H](CO)NC1=O` [Ac-K(EBX)-S-A-F-W-OH], the ring closure, isolated yield (from CC(=O)N[C@@H](CCCCNC(=O)c1ccc(C#CI2OC(C(F)(F)F)(C(F)(F)F)c3ccccc32)cc1)C(=O)N[C@@H](CO)C(=O)N[C@@H](C)C(=O)N[C@@H](Cc1ccccc1)C(=O)N[C@@H](Cc1c[nH]c2ccccc12)C(=O)O, 28-membered ring) was 67%. `CC(=O)N[C@H]1CCCCNC(=O)c2ccc(cc2)C#Cc2[nH]c3ccccc3c2C[C@@H](C(=O)O)NC(=O)[C@H](Cc2ccccc2)NC(=O)[C@H](C)NC(=O)[C@H](CCCNC(=N)N)NC1=O` [Ac-K(EBX)-R-A-F-W-OH]: where the note is “from CC(=O)N[C@@H](CCCCNC(=O)c1ccc(C#CI2OC(C(F)(F)F)(C(F)(F)F)c3ccccc32)cc1)C(=O)N[C@@H](CCCNC(=N)N)C(=O)N[C@@H](C)C(=O)N[C@@H](Cc1ccccc1)C(=O)N[C@@H](Cc1c[nH]c2ccccc12)C(=O)O, 28-membered ring”, the ring closure, isolated yield came to 42%. With `N=C(N)NCCC[C@@H]1NC(=O)[C@H](CCCNC(=N)N)NC(=O)[C@H](CCCNC(=N)N)NC(=O)[C@H](CCCNC(=N)N)NC(=O)[C@H](Cc2ccc3ccccc3c2)NC(=O)c2ccc(cc2)C#Cc2[nH]c3ccccc3c2C[C@@H](C(N)=O)NC1=O` [EBX-Nal(2)-R-R-R-R-W-NH2], where the note is “from N=C(N)NCCC[C@H](NC(=O)[C@H](CCCNC(=N)N)NC(=O)[C@H](CCCNC(=N)N)NC(=O)[C@H](CCCNC(=N)N)NC(=O)[C@H](Cc1ccc2ccccc2c1)NC(=O)c1ccc(C#CI2OC(C(F)(F)F)(C(F)(F)F)c3ccccc32)cc1)C(=O)N[C@@H](Cc1c[nH]c2ccccc12)C(N)=O, 27-membered ring”, the ring closure, isolated yield is 53%. With `C[C@@H]1NC(=O)[C@H](CC(=O)O)NC(=O)CNC(=O)c2ccc(cc2)C#Cc2[nH]c3ccccc3c2C[C@@H](C(N)=O)NC(=O)[C@H](CCC(=O)O)NC(=O)CNC(=O)[C@H]([C@@H](C)O)NC(=O)[C@H](CCC(=O)O)NC1=O` [EBX-G-D-A-E-T-G-E-W-NH2], the ring closure, isolated yield (from C[C@H](NC(=O)[C@H](CC(=O)O)NC(=O)CNC(=O)c1ccc(C#CI2OC(C(F)(F)F)(C(F)(F)F)c3ccccc32)cc1)C(=O)N[C@@H](CCC(=O)O)C(=O)N[C@H](C(=O)NCC(=O)N[C@@H](CCC(=O)O)C(=O)N[C@@H](Cc1c[nH]c2ccccc12)C(N)=O)[C@@H](C)O, 33-membered ring) amounted to 47%. As to `CC(=O)N[C@H]1CCCCNC(=O)c2ccc(cc2)C#Cc2[nH]c3ccccc3c2C[C@@H](C(=O)O)NC(=O)[C@H](Cc2ccccc2)NC(=O)[C@H](C)NC(=O)[C@H](CC(C)C)NC1=O` [Ac-K(EBX)-L-A-F-W-OH], the ring closure, isolated yield (from CC(=O)N[C@@H](CCCCNC(=O)c1ccc(C#CI2OC(C(F)(F)F)(C(F)(F)F)c3ccccc32)cc1)C(=O)N[C@@H](CC(C)C)C(=O)N[C@@H](C)C(=O)N[C@@H](Cc1ccccc1)C(=O)N[C@@H](Cc1c[nH]c2ccccc12)C(=O)O, 28-membered ring) turned out to be 56%. Consider `CC(=O)N[C@H]1CCCCNC(=O)c2ccc(cc2)C#Cc2[nH]c3ccccc3c2C[C@@H](C(=O)O)NC(=O)[C@H](Cc2ccccc2)NC(=O)[C@H](C)NC(=O)[C@H](CSSC(C)(C)C)NC1=O` [Ac-K(EBX)-C(StBu)-A-F-W-OH], for which, under “from CC(=O)N[C@@H](CCCCNC(=O)c1ccc(C#CI2OC(C(F)(F)F)(C(F)(F)F)c3ccccc32)cc1)C(=O)N[C@@H](CSSC(C)(C)C)C(=O)N[C@@H](C)C(=O)N[C@@H](Cc1ccccc1)C(=O)N[C@@H](Cc1c[nH]c2ccccc12)C(=O)O, 28-membered ring”, the ring closure, isolated yield stood at 25%. For `CC(=O)N[C@H]1CCCCNC(=O)c2ccc(cc2)C#Cc2[nH]c3ccccc3c2C[C@@H](C(=O)O)NC(=O)[C@H](Cc2ccccc2)NC(=O)[C@H](C)NC(=O)[C@H](Cc2c[nH]cn2)NC1=O` [Ac-K(EBX)-H-A-F-W-OH], under “from CC(=O)N[C@@H](CCCCNC(=O)c1ccc(C#CI2OC(C(F)(F)F)(C(F)(F)F)c3ccccc32)cc1)C(=O)N[C@@H](Cc1c[nH]cn1)C(=O)N[C@@H](C)C(=O)N[C@@H](Cc1ccccc1)C(=O)N[C@@H](Cc1c[nH]c2ccccc12)C(=O)O, 28-membered ring”, the ring closure, isolated yield amounted to 30%. On to `CC(=O)N[C@H]1CCCCNC(=O)c2ccc(cc2)C#Cc2c(c3ccccc3n2C)C[C@@H](C(=O)O)NC(=O)[C@H](Cc2ccccc2)NC(=O)[C@H](C)NC(=O)[C@H](CC(C)C)NC1=O` [Ac-K(EBX)-L-A-F-W(1-Me)-OH], for which the ring closure, isolated yield (from CC(=O)N[C@@H](CCCCNC(=O)c1ccc(C#CI2OC(C(F)(F)F)(C(F)(F)F)c3ccccc32)cc1)C(=O)N[C@@H](CC(C)C)C(=O)N[C@@H](C)C(=O)N[C@@H](Cc1ccccc1)C(=O)N[C@@H](Cc1cn(C)c2ccccc12)C(=O)O, 28-membered ring) worked out at 63%. For the compound `CSCC[C@@H]1NC(=O)[C@@H](NC(C)=O)CCCCNC(=O)c2ccc(cc2)C#Cc2[nH]c3ccccc3c2C[C@@H](C(=O)O)NC(=O)[C@H](Cc2ccccc2)NC(=O)[C@H](C)NC1=O` [Ac-K(EBX)-M-A-F-W-OH], the ring closure, isolated yield (from CSCC[C@H](NC(=O)[C@H](CCCCNC(=O)c1ccc(C#CI2OC(C(F)(F)F)(C(F)(F)F)c3ccccc32)cc1)NC(C)=O)C(=O)N[C@@H](C)C(=O)N[C@@H](Cc1ccccc1)C(=O)N[C@@H](Cc1c[nH]c2ccccc12)C(=O)O, 28-membered ring) was determined as 0%.
